Source: PMC11022681 (Journal of the American Chemical Society, 2023)

Assay: Kinetic inertness: transmetalation with excess Zn2+
Format: physicochemical
Details: 25 equivalents of Zn2+, 37 °C, pH 6.0 MES buffer

Mn-PyC3A
pseudo-first-order rate constant of transmetalation: 5.5 ± 0.4 ×10^−4 s^−1
